Data on four molecules can be found in patent US20260209304A1, “INSULIN RECEPTOR ANTAGONIST” (The Board of Trustees of the Leland Stanford Junior …, priority 2022, published 2026).

Positions of bridges follow the written chain, without caps; N, C: chain ends. Chains are numbered I, II in the order given. No end group written: not given here.

Assay [1] deals with T1, human insulin receptor (Homo sapiens, UniProt P06213). Description: Cell-based pAKT (Ser473) assay in NIH 3T3 cells overexpressing human insulin receptor. On the set-up: expressed in transfected cells; host or cells: NIH 3T3 cell line derived from IGF-1R knockout mice (gift from A. Morrione, Thomas Jefferson University).
Procedure: All the values are shown as mean±SD (n=4). EC50 and IC50 values were calculated by Prism 9 (GraphPad Software, California, USA) with nonlinear regression curve fitting of dose-response asymmetric equation.
Cell-based pAKT and phosphor-IR-beta Assays. The bioactivities of the analogs were evaluated through a cell-based pAKT (Ser473) assay or phospho-IR-beta (Tyr1150/1151) assay. Endogenous levels of pAKT or phosphor-IR-beta were measured in a human insulin receptor overexpressed NIH 3T3 cell line, derived from IGF-1R knockout mice (a generous gift from A. Morrione, Thomas Jefferson University). Cells were cultured in DMEM (Gibco) with 10% fetal bovine serum (FBS, Gibco), 100 U/mL penicillin-streptomycin (Gibco), 2 mg/mL puromycin (Thermo Fisher Scientific), and 1 mg/mL normocin (InvivoGen) at 37° C. under 5% CO2. For the assays, 30,000 cells per well and 100 μl per well, were plated in a 96-well plate with culture media containing 1% FBS. 20 hours later, the media was removed and 50 μl of culture media with different concentrations of native insulin or analog was pipetted into each well. […] After 4 hours of incubation, the plate was read in a SpectraMax iD5 plate reader (Molecular Devices) and the data were processed according to the manufacturer's protocol. […]
Another assay addresses insulin receptor (IR) (Homo sapiens, UniProt P06213). Description: Binding affinity of insulin-core mutants relative to the A13R mutation.
In assay [2] the target is T1, human insulin receptor. Description: cell-based or functional assay.

The EC50 is the midpoint of the concentration-response curve. Read a low EC50 as greater potency.

At human insulin receptor [1], “I: GIVEQCCHRICSLYQLENYCGGSLPETGGGSLEEEWAQIQSEVWGRGSPSY / II: FVNQHLCGSELVEALYLVCGERGFFYTPK (disulfide I:6-I:11, I:7-II:7, I:20-II:19) [Ins-AC-10-11]” had an EC50 of 0.0115 nM. Also, the “binding affinity relative to the A13R mutation” value on insulin receptor (IR) was “increased”. At human insulin receptor [1], “I: FVNQHLCGSELVEALYLVCGERGFFYTPK / II: GIVEQCCHRICSLYQLENYCGGSLPETGG (disulfide I:7-II:7, I:19-II:20, II:6-II:11) [Ins-AC-10-9]” returned an EC50 of 0.562 nM. In addition, the “binding affinity relative to the A13R mutation” value at insulin receptor (IR) is reported as “increased”.

B1: Ins-AC-10-9 (designed binder)
chain 1: GIVEQCCHRICSLYQLENYCGGSLPETGG
chain 2: FVNQHLCGSELVEALYLVCGERGFFYTPK
In the assay with human insulin receptor [2], B1 gave an Agonist Activity (nM), cell-based pAKT assay of 0.562 nM.

B2: Ins-AC-10-11 (designed binder)
chain 1: GIVEQCCHRICSLYQLENYCGGSLPETGGGSLEEEWAQIQSEVWGRGSPSY
chain 2: FVNQHLCGSELVEALYLVCGERGFFYTPK
In the case of B2, in the assay with human insulin receptor [2], the Agonist Activity (nM), cell-based pAKT assay is 0.0115 nM and the Antagonist Activity (nM), cell-based pAKT assay is 0.5 nM.
